These results are taken from patent US20260070922A1, “PYRAZOLE AND IMIDAZOLE DERIVATIVES AS DUAL OREXIN AND KAPPA-OPIOID RECEPTORS MODULATORS COMPOSITION, METHODS FOR TREATING NEUROLOGICAL AND PSYCHIATRIC DISORDERS” (HAGER BIOSCIENCES, LLC, priority 2022, published 2026).

In assay [1] the target is T1, Orexin type 1 (OX1R) receptor (Homo sapiens, UniProt O43613).
T1 construct: expressed in transfected cells; host or cells: CHO cells (G418 selection)
T1 sequence (O43613 1-425): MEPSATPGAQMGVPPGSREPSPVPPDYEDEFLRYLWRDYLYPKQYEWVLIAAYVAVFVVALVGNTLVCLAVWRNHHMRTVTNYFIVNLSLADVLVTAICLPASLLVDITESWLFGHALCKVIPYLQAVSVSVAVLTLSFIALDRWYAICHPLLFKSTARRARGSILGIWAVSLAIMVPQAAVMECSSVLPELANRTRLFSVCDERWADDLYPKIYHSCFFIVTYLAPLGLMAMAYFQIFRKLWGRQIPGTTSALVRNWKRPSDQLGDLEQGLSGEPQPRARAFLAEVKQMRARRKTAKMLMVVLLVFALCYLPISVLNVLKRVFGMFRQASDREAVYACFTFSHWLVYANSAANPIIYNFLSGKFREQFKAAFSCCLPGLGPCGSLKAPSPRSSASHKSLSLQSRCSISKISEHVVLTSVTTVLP
Nature of the assay: In vitro orexin antagonism assay: intracellular calcium measurement (FLIPR), orexin-A 3 nM as agonist. The class given is cell-based. Particulars: for IC50: first value of IC50/Kb cell; for inhibition at 1 µM: read-out: OX1R, % Inh. @ 1 uM; for Kb: second value of IC50/Kb cell. As for the experimental part:
(§1) In Vitro Orexin Antagonism Measurement Assay: Intracellular Calcium Measurements:
(§2) Chinese hamster ovary (CHO) cells expressing the human […] and the human orexin-2 receptor, respectively, are grown in culture medium (Ham F-12 with L-Glutamine) containing 300 μg/mL G418, 100 U/mL penicillin, 100 μg/mL streptomycin and 10% heat inactivated fetal calf serum (FCS). The cells are seeded at 20,000 cells/well into 384-well black clear bottom sterile plates (Greiner). The seeded plates are incubated overnight at 37° C. in 5% 002. Human orexin-A as an agonist is prepared as 1 mM stock solution in MeOH: water (1:1), diluted in HBSS containing 0.1% bovine serum albumin (BSA), NaHCO3: 0.375 g/L and 20 mM HEPES for use in the assay at a final concentration of 3 nM.
(§3) Antagonists are prepared as 10 mM stock solution in DMSO, then diluted in 384-well plates using DMSO followed by a transfer of the dilutions into in HBSS containing 0.1% bovine serum albumin (BSA), NaHCO3: 0.375 g/L and 20 mM HEPES. On the day of the assay, 50 μL of staining buffer (HBSS containing 1% FCS, 20 mM HEPES, NaHCO3: 0.375 g/L, 5 mM probenecid (Sigma) and 3 μM of the fluorescent calcium indicator fluo-4 AM (1 mM stock solution in DMSO, containing 10% pluronic) is added to each well. The 384-well cell-plates are incubated for 50 min at 37° C. in 5% CO2 followed by equilibration at RT for 30 min before measurement.
(§4) Within the Fluorescent Imaging Plate Reader (FLIPR Tetra, Molecular Devices), antagonists are added to the plate in a volume of 10 μL/well, incubated for 120 min and finally 10 μL/well of agonist is added. Fluorescence is measured for each well at 1 second intervals, and the height of each fluorescence peak is compared to the height of the fluorescence peak induced by 3 nM orexin-A with vehicle in place of antagonist. The IC50 value (the concentration of compound needed to inhibit 50% of the agonistic response) is determined and may be normalized using the obtained IC50 value of an on-plate reference compound. Optimized conditions were achieved by adjustment of pipetting speed and cell splitting regime. The calculated IC50values may fluctuate depending on the daily cellular assay performance. Fluctuations of this kind are known to those skilled in the art.
(In general: Calcium flux is commonly read through the fluorescence of an indicator in the cells.)

The target in assay [2] is T2, human orexin-2 receptor (OX2R) (Homo sapiens, UniProt O43614).
T2 construct: expressed in transfected cells; host or cells: CHO cells (G418 selection)
T2 sequence (O43614 1-444): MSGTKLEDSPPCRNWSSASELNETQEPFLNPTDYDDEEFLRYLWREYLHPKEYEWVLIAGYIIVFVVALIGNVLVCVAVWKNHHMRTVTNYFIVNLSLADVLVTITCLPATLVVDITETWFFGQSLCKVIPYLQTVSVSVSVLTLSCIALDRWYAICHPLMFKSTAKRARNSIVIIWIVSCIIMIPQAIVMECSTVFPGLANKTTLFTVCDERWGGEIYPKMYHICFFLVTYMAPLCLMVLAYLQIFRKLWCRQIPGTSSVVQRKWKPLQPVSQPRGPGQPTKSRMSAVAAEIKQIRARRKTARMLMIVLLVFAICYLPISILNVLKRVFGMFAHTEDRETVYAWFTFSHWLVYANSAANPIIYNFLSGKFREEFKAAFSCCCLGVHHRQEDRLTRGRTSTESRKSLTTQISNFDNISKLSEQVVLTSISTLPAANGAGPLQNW
The description is as above. The class given is cell-based. Particulars: for inhibition at 1 µM: read-out: OX2R, % Inh. @ 1 uM; for IC50: first value of IC50/Kb cell; for Kb: second value of IC50/Kb cell. How it is done:
Antagonistic activities on both orexin receptors have been measured for each example compound using the following procedure:
as §1, §2, §3
as §4, with “art. In the case where IC50values have been determined several times for the same compound, the geometric mean has been given.” for “art.”

A word on the IC50: it is the midpoint of a concentration-inhibition curve. As a reminder, the Kb is the equilibrium dissociation constant of an antagonist, usually derived from a functional assay. In the case of `O=C(c1c(-c2ccc(F)cc2)nn2c1COCC2)N1CCC[C@H]1Cn1ccc(-c2ccc(F)cc2)n1` [Example 54], in assay [1], the IC50 was 0.122 µM, the inhibition at 1 µM came out at 98% and the Kb was 0.026 µM. For the same compound, the inhibition at 1 µM in assay [2] turned out to be 45.1%.
The like results for `O=C(c1c(-c2ccccc2F)nn2c1COCC2)N1CCC[C@H]1Cn1ccc(-c2ccccn2)n1` [Example 70] were, in that order, 0.12 µM, 60%, 0.025 µM and 35%.
Consider `O=C(c1c(-c2ccccc2F)nn2c1COCC2)N1CCC[C@H]1Cn1cc(-c2ccccn2)cn1` [Example 71], for which the inhibition at 1 µM turned out to be 14% in assay [1] and 40% in assay [2].
Take `O=C(c1c(-c2ccccc2F)nn2c1COCC2)N1CCC[C@H]1Cn1cc(-c2ccccc2)cn1` [Example 72]: in assay [1], the IC50 was 0.62 µM, the inhibition at 1 µM amounted to 64% and the Kb was 0.013 µM. In assay [2], the inhibition at 1 µM came to 45%.
Turning to `O=C(c1c(-c2ccccc2)nc2ccc(F)cn12)N1CCC[C@H]1Cn1cc(-c2ccccn2)cn1` [Example 74], the inhibition at 1 µM turned out to be 40% in assay [1] and 45% in assay [2].
The like results for `O=C(c1c(-c2ccccc2)nn2c1COCC2)N1CCC[C@H]1Cn1ccc(-c2ccccn2)n1` [Example 76] were, in that order, 46% and 25%.
Regarding `O=C(c1c(-c2ccccc2)nn2c1COCC2)N1CCC[C@H]1Cn1cc(-c2ccccn2)cn1` [Example 77], the inhibition at 1 µM in assay [1] amounted to 22%; in assay [2] it was 23%.
As for `O=C(c1c(-c2ccccc2)nc2cc(C(F)(F)F)ccn12)N1CCC[C@H]1Cn1cc(-c2ccccn2)cn1` [Example 79], the inhibition at 1 µM in assay [1] turned out to be 43%. Further, in assay [2], the IC50 was 0.077 µM, the inhibition at 1 µM turned out to be 62% and the Kb came to 0.013 µM.
Regarding `O=C(c1c(-c2ccccc2)nc2cc(C(F)(F)F)ccn12)N1CCC[C@H]1Cn1cc(-c2ccc(F)cn2)cn1` [Example 81], in assay [1], the IC50 was found to be 0.4 µM, the inhibition at 1 µM stood at 58% and the Kb turned out to be 0.084 µM. Further, in assay [2], the IC50 amounted to 0.07 µM, the inhibition at 1 µM stood at 63% and the Kb is 0.012 µM.
`O=C(c1c(-c2ccccc2F)nn2c1COCC2)N1CCC[C@H]1Cn1cc(-c2ccc(F)cn2)cn1` [Example 83]: the results for the inhibition at 1 µM in assay [1] and in assay [2] were 17% and 39%, respectively.
For the compound `O=C(c1c(-c2ccccc2)nc2ccc(F)cn12)N1CCC[C@H]1Cn1cc(-c2ccc(F)cn2)cn1` [Example 84], the inhibition at 1 µM in assay [1] was 32%. For the same compound, in assay [2], the IC50 came to 0.4 µM, the inhibition at 1 µM turned out to be 58% and the Kb was found to be 0.07 µM.
Turning to `O=C(c1c(-c2ccccc2)nn2c1COCC2)N1CCC[C@H]1Cn1cc(-c2ccc(F)cn2)cn1` [Example 85], the inhibition at 1 µM came out at 19% in assay [1] and 35% in assay [2].
On to `O=C(c1c(-c2ccccc2)nn2c1COCC2)N1CCC[C@H]1Cn1cc(-c2ccccc2)cn1` [Example 86], for which, in assay [1], the concentration for half-maximal inhibition (IC50) worked out at 1.3 µM, the inhibition at 1 µM came to 56% and the Kb was found to be 0.28 µM. Besides, the inhibition at 1 µM in assay [2] came out at 42%.
The like results for `O=C(c1c(-c2ccccc2F)nn2c1COCC2)N1CCC[C@H]1Cn1ccc(-c2ccc(F)cn2)n1` [Example 91] were, in that order, 0.54 µM, 58%, 0.11 µM and 38%.
Turning to `O=C(c1c(-c2ccccc2)nn2c1COCC2)N1CCC[C@H]1Cn1ccc(-c2ccc(F)cn2)n1` [Example 93], the inhibition at 1 µM amounted to 41% in assay [1] and 36% in assay [2].
The like results for `O=C(c1c(-c2ccccc2F)nn2c1COCC2)N1[C@H](Cn2ccc(-c3ccc(F)cc3)n2)C[C@@H]2C[C@@H]21` [Example 96] were, in that order, 44% and 22%.
The like results for `O=C(c1c(-c2ccccc2)nc2cc(C(F)(F)F)ccn12)N1[C@H](Cn2ccc(-c3ccc(F)cc3)n2)C[C@@H]2C[C@@H]21` [Example 98] were, in that order, 48% and 35%.
In the case of `O=C(c1c(-c2ccccc2F)nn2ccccc12)N1CC[C@H]1Cn1ccc(-c2ccc(F)cc2)n1` [Example 99], in assay [1], the IC50 stood at 0.44 µM, the inhibition at 1 µM was 59% and the Kb worked out at 0.092 µM. Besides, in assay [2], the IC50 turned out to be 0.27 µM, the inhibition at 1 µM was 61% and the Kb was 0.046 µM.
As to `O=C(c1c(-c2ccccc2F)nn2c1COCC2)N1CC[C@H]1Cn1ccc(-c2ccc(F)cc2)n1` [Example 100], the inhibition at 1 µM in assay [1] was -2%; in assay [2] it was 19%.
`O=C(c1c(-c2ccccc2)nc2ccc(F)cn12)N1CC[C@H]1Cn1ccc(-c2ccc(F)cc2)n1` [Example 101]: the inhibition at 1 µM amounted to 25% in assay [1] and 47% in assay [2].
As to `O=C(c1c(-c2ccccc2)nc2cc(C(F)(F)F)ccn12)N1CC[C@H]1Cn1ccc(-c2ccc(F)cc2)n1` [Example 102], the inhibition at 1 µM in assay [1] came out at 31%. Besides, in assay [2], the IC50 was 0.66 µM, the inhibition at 1 µM came out at 60% and the Kb is 0.11 µM.
`O=C(c1c(-c2ccccc2F)nn2ccccc12)N1CC[C@H]1Cn1ccc(-c2ccc(F)cn2)n1` [Example 103]: the inhibition at 1 µM was 24% in assay [1] and 43% in assay [2].
For `O=C(c1c(-c2ccccc2F)nn2c1COCC2)N1CC[C@H]1Cn1ccc(-c2ccc(F)cn2)n1` [Example 104] the same measures were 8% and 14%.
For `O=C(c1c(-c2ccccc2)nc2ccc(F)cn12)N1CC[C@H]1Cn1ccc(-c2ccc(F)cn2)n1` [Example 105] the same measures were 5% and 29%.
The like results for `O=C(c1c(-c2ccccc2)nc2cc(C(F)(F)F)ccn12)N1CC[C@H]1Cn1ccc(-c2ccc(F)cn2)n1` [Example 106] were, in that order, 19% and 39%.
For the compound `O=C(c1c(-c2ccccc2F)nn2c1COCC2)N1[C@H](Cn2ccc(-c3ccc(F)cn3)n2)C[C@@H]2C[C@@H]21` [Example 108], the inhibition at 1 µM in assay [1] was found to be 23%; in assay [2], 17%.
For `O=C(c1c(-c2ccccc2)nc2ccc(F)cn12)N1[C@H](Cn2ccc(-c3ccc(F)cn3)n2)C[C@@H]2C[C@@H]21` [Example 109], the inhibition at 1 µM in assay [1] was 45%; in assay [2], 32%.
